Test results as given in publication PMC6778101 (Nature Communications, 2019).
Entries after “also recorded” stand apart in the source; their conditions may differ. Like-named read-outs stand apart in the source and are kept apart here. Ends that are not written are not given here. Peptide text beside a SMILES is read from it.

Tests used:
Human red blood cells [1] = test: Hemolysis assay; assay type: cell-based; conditions: for ATI (activity/toxicity index), ratio MHC / MM: MHC on human red blood cells / median of MICs in E. coli K12
Protocol: Human red blood cells (hemoglobin concentration (Hb) 150–160 g L^−1) were collected from apparently healthy patients in EDTA tubes. 600 µL of EDTA-blood were washed in TBS buffer (10 mM TRIS, 150 mM NaCl) and centrifuged at 1500 × g for 1 min until the supernatant became colorless. The final pellet was diluted to 5 mL with TBS buffer. Hundred microliters of this cell suspension was pipetted into sterile Eppendorf tubes together with twofold serial dilutions of each compound to a final volume of 200 μl. Final concentrations ranged between 2500 µg mL^−1–9.75 µg mL^−1. Following incubation for one hour at 37 °C, samples were centrifuged at 1500 g for 1 min to precipitate the red blood cells. All supernatants were transferred to sterile 96-well plates for the measurement of their direct optical density (OD) at 565 nm wavelength (Multiskan FC microplate reader, Thermo Scientific). Melittin (Bachem) at concentration of 50 µg.mL^−1 and TBS were used as positive (100% hemolysis) and negative (no hemolysis) controls, respectively. Haemolytic effect of each peptide at each concentration was calculated as follows: Hemolysis effect = (Compound OD565nm − TBS OD565nm) × 100/(Melitin OD565nm − TBS OD565nm).

Human red blood cells [2] = conditions: previous work; cited from earlier work
Description: Finally, our work identifies that TPII and CP1 are promising candidates for future therapeutic considerations, for the following reasons. They are active against a wide range of bacterial pathogens with a relatively high activity/toxicity (ATI) index. We note however, that existing data on the toxicity of the tachyplesin antimicrobial family are controversial[48],[59]–[61]. […] Furthermore, evolution of resistance against these AMPs is improbable in E. coli. We propos ...

E. coli K-12 BW25113 = test: Laboratory evolution of resistance, MIC fold change of adapted lines; assay type: cell-based, Escherichia coli; conditions: for MIC fold change following 20 transfers: Escherichia coli K-12 BW25113; for MIC fold change after the evolution: MIC evolved / MIC control, 20 transfers, ~120 generations
Description: Our first goal was to study resistance evolution against a set of AMPs and antibiotics. We have followed established protocols with minor modifications to evolve bacterial populations under controlled laboratory conditions[19],[20]. The applied protocol aims to maximize the level of drug resistance in the evolving populations achieved during a fixed time period. We have initiated a laboratory evolution experiment, starting with a single clone of Escherichia coli K-12 BW25113 (abbreviated as E. coli K-12 BW25113). Parallel evolving populations were exposed to increasing concentrations of one of 14 AMPs (Supplementary Table 1). Peptides were chosen based on the following criteria: diverse sources (synthetic/natural), different putative mechanisms of action, structural diversity, and clinical relevance. Another set of populations were exposed to one of 12 clinically relevant antibiotics (Supplementary Table 2), using the same protocol. Accordingly, we have propagated 10 independent populations in the presence of each AMP or antibiotic for ∼120 generations. We isolated a single, representative clone from each population, resulting in 140 AMP-adapted lines and 120 antibiotic-adapted lines. Throughout the paper, we compare the level of resistance in the evolved lines to the corresponding wild-type strain by measuring changes in the drugs’ minimum inhibitory concentrations (MIC).
(§1) The evolutionary protocol was designed to avoid population extinction and to ensure that populations with the highest level of resistance were propagated further. Starting with a subinhibitory drug concentration (Supplementary Data 8), resulting in ~50% growth inhibition, 10 parallel populations per drug were allowed to grow in Minimal Salts medium for 72 h and 300 r.p.m. E. coli K-12 BW25113 and E. coli mutD5 populations were incubated at 30 °C, while E. coli ATCC 25922, S. enterica LT2, K. pneumonia ATCC 10031, and A. baumannii ATCC 17978 were incubated at 37 °C. […] Prior to each transfer, cell growth was monitored by measuring the optical density at 600 nm (OD600 value, Biotek Synergy 2 microplate reader). Only populations with the highest drug concentration (and reaching OD600 > 0.2) were selected for further evolution. A chess-board layout was used on the plate to monitor potential cross-contamination events. […] E. coli mutD5 was adapted to TPII, also in 10 parallel evolving populations.
(§2) MICs were determined using a standard serial broth dilution technique. Briefly, 11-step serial dilutions were prepared in 96-well microtiter plates with three replicates per strain and antimicrobial compound. Each experiment was repeated at least twice. 5 × 10^5 cells/mL were inoculated into each well, and the plates were incubated at 30 °C in case of E. coli K-12 BW25113, and its antibiotic and AMP-adapted lines, or 37 °C in case of the other bacterial species. Plates were shaken at 300 r.p.m. during incubation for 24 and 18 h, respectively. Cell growth was monitored by measuring the optical density (OD600 value, Biotek Synergy 2 microplate reader was used for this purpose). […] Relative MIC was calculated as follows: MICrelative = MICevolved/MICcontrol.

E. coli mutD5 = test: Laboratory evolution of resistance in mutator strain, MIC fold change; assay type: cell-based, Escherichia coli; conditions: for MIC fold change after the evolution: mutD5 mutator strain (*)
Description: Unless otherwise indicated, we used E. coli K-12 BW25113 in all high-throughput experiments. To investigate the impact of mutation rate on evolution of AMP resistance, we initiated laboratory evolution with a mutator strain E. coli mutD5 that carries mutations in the dnaQ gene (L73W and A164V).
as §1, §2

E.coli K-12 BW25113 = assay type: cell-based, Escherichia coli; conditions: for MIC (freshly prepared AMP): plates inoculated immediately; for MIC (pre-incubated AMP): plates pre-incubated 72 hours before inoculation
Protocol: as §2
Supplementary Table 7- Effect of incubation time on the minimum inhibitory concentration (MIC) of AMPs. We tested whether the prolonged incubation time can affect the MIC of AMPs. To test this, two sets of AMP containing MIC plates were prepared in parallel. The first set was immediately inoculated with E.coli K-12 BW25113, while the second set was pre-incubated 72 hours before inoculation with the […]
observed in the MIC between freshly prepared and pre-incubated plates. […]

[3] = parallel line 1 of 10 adapted to the agent
[4] = time allowed for bacterial growth 24 hours
[5] = time allowed for bacterial growth 48 hours
[6] = time allowed for bacterial growth 72 hours

In the case of “SWLSKTAKKLENSAKKRISEGIAIAIQGGPR [CP1, Cecropin P1]”, the “ATI (activity/toxicity index), ratio MHC / MM” value (Human red blood cells [1]) is given as > 847.45, the “MHC (minimum haemolytic concentration, concentration causing 10% haemolysis)” value (Human red blood cells [1]; human red blood cells, 1 h, 37 °C) is given as > 2500 µg/mL and the “toxicity or haemolytic activity (in words)” value (Human red blood cells [2]) is given as “negligible toxicity or haemolytic activity”.
With `CC[C@H](C)[C@@H]1NC(=O)CNC(=O)[C@H](CCCNC(=N)N)NC(=O)[C@H](Cc2ccc(O)cc2)NC(=O)[C@@H]2CSSC[C@H](NC1=O)C(=O)N[C@@H](Cc1ccc(O)cc1)C(=O)N[C@@H](CCCNC(=N)N)C(=O)N[C@@H](CCCCN)C(=O)N[C@H](C(=O)N[C@@H](CCCNC(=N)N)C(N)=O)CSSC[C@H](NC(=O)[C@H](Cc1c[nH]c3ccccc13)NC(=O)[C@@H](N)CCCNC(=N)N)C(=O)N[C@@H](Cc1ccccc1)C(=O)N[C@@H](CCCNC(=N)N)C(=O)N[C@@H](C(C)C)C(=O)N2` [TPII, tachyplesin II] (HELM PEPTIDE1{R.W.C.F.R.V.C.Y.R.G.I.C.Y.R.K.C.R.[am]}$PEPTIDE1,PEPTIDE1,3:R3-16:R3|PEPTIDE1,PEPTIDE1,7:R3-12:R3$$$V2.0; N-terminus and C-terminus assumed; bridges inferred) the “MIC fold change following 20 transfers” value (E. coli K-12 BW25113; [3]) was 1.0 fold, the “average MIC fold change after the evolution” value (E. coli K-12 BW25113; average of MIC fold change of the 10 independently adapted populations) was 1.000 and the “MIC fold change after the evolution” value (E. coli K-12 BW25113; parallel-evolved line 1) was 1. The “MIC fold change after the evolution” value (E. coli K-12 BW25113; parallel-evolved line 2) was 1, the “MIC fold change after the evolution” value (E. coli K-12 BW25113; parallel-evolved line 3) was 1 and the “MIC fold change after the evolution” value (E. coli K-12 BW25113; parallel-evolved line 4) was 1. The “MIC fold change after the evolution” value (E. coli K-12 BW25113; parallel-evolved line 5) was 1, the “MIC fold change after the evolution” value (E. coli K-12 BW25113; parallel-evolved line 6) was 1 and the “MIC fold change after the evolution” value (E. coli K-12 BW25113; parallel-evolved line 7) was 1. The “MIC fold change after the evolution” value (E. coli K-12 BW25113; parallel-evolved line 8) was 1, the “MIC fold change after the evolution” value (E. coli K-12 BW25113; parallel-evolved line 9) was 1 and the “MIC fold change after the evolution” value (E. coli K-12 BW25113; parallel-evolved line 10) was 1. The “resistance in evolved lines after laboratory evolution (in words)” value (E. coli K-12 BW25113; ~120 generations under increasing drug concentration) was “failed to detect any resistance”, the “resistance in evolved mutator populations (in words)” value (E. coli mutD5; 10 laboratory evolved E. coli K-12 mutD5 populations) was “none of the 10 laboratory evolved mutator E. coli K-12 mutD5 populations displayed resistance; also recorded: failed to develop resistance” and the “MIC fold change following 20 transfers” value (E. coli mutD5; Escherichia coli mutD5 mutator strain, parallel line 1 of 10) was 1.4 fold. For the same molecule, the “MIC fold change after the evolution” value (E. coli mutD5; parallel-evolved line 1) was 1, the “MIC fold change after the evolution” value (E. coli mutD5; parallel-evolved line 2) was 1 and the “MIC fold change after the evolution” value (E. coli mutD5; parallel-evolved line 3) was 1. For the same molecule, the “MIC fold change after the evolution” value (E. coli mutD5; parallel-evolved line 4) was 1, the “MIC fold change after the evolution” value (E. coli mutD5; parallel-evolved line 5) was 1 and the “MIC fold change after the evolution” value (E. coli mutD5; parallel-evolved line 6) was 1. The “MIC fold change after the evolution” value (E. coli mutD5; parallel-evolved line 7) was 1, the “MIC fold change after the evolution” value (E. coli mutD5; parallel-evolved line 8) was 1 and the “MIC fold change after the evolution” value (E. coli mutD5; parallel-evolved line 9) was 1. The “MIC fold change after the evolution” value (E. coli mutD5; parallel-evolved line 10) was 1, the “ATI (activity/toxicity index), ratio MHC / MM” value (Human red blood cells [1]) was 155.22 and the “MIC (freshly prepared AMP)” value (E.coli K-12 BW25113; [4]) was 5 µg/mL. The “MIC (freshly prepared AMP)” value (E.coli K-12 BW25113; [5]) was 5 µg/mL, the “MIC (freshly prepared AMP)” value (E.coli K-12 BW25113; [6]) was 5 µg/mL and the “MIC (pre-incubated AMP)” value (E.coli K-12 BW25113; [4]) was 6 µg/mL. The “MIC (pre-incubated AMP)” value (E.coli K-12 BW25113; [5]) was 6 µg/mL and the “MIC (pre-incubated AMP)” value (E.coli K-12 BW25113; [6]) was 6 µg/mL.
With `NC[C@H]1O[C@H](O[C@H]2[C@H](O)[C@@H](O[C@H]3O[C@H](CO)[C@@H](O)[C@H](N)[C@H]3O)[C@H](N)C[C@@H]2N)[C@H](O)[C@@H](O)[C@@H]1O` [KAN, Kanamycin] the “MIC fold change following 20 transfers” value (E. coli K-12 BW25113; [3]) was 256 fold, the “MIC fold change following 20 transfers” value (E. coli K-12 BW25113; parallel line 2 of 10 adapted to the agent) was 256 fold and the “MIC fold change following 20 transfers” value (E. coli K-12 BW25113; parallel line 3 of 10 adapted to the agent) was 177 fold. The “MIC fold change following 20 transfers” value (E. coli K-12 BW25113; parallel line 4 of 10 adapted to the agent) was 177 fold, the “MIC fold change following 20 transfers” value (E. coli K-12 BW25113; parallel line 5 of 10 adapted to the agent) was 93 fold and the “MIC fold change following 20 transfers” value (E. coli K-12 BW25113; parallel line 6 of 10 adapted to the agent) was 256 fold. The “MIC fold change following 20 transfers” value (E. coli K-12 BW25113; parallel line 7 of 10 adapted to the agent) was 256 fold, the “MIC fold change following 20 transfers” value (E. coli K-12 BW25113; parallel line 8 of 10 adapted to the agent) was 49 fold and the “MIC fold change following 20 transfers” value (E. coli K-12 BW25113; parallel line 9 of 10 adapted to the agent) was 177 fold. For the same molecule, the “MIC fold change following 20 transfers” value (E. coli K-12 BW25113; parallel line 10 of 10 adapted to the agent) was 93 fold, the “MIC fold change after the evolution” value (E. coli K-12 BW25113; parallel-evolved line 1) was 256 and the “MIC fold change after the evolution” value (E. coli K-12 BW25113; parallel-evolved line 2) was 256. The “MIC fold change after the evolution” value (E. coli K-12 BW25113; parallel-evolved line 3) was 177, the “MIC fold change after the evolution” value (E. coli K-12 BW25113; parallel-evolved line 4) was 177 and the “MIC fold change after the evolution” value (E. coli K-12 BW25113; parallel-evolved line 5) was 93. For the same molecule, the “MIC fold change after the evolution” value (E. coli K-12 BW25113; parallel-evolved line 6) was 256, the “MIC fold change after the evolution” value (E. coli K-12 BW25113; parallel-evolved line 7) was 256 and the “MIC fold change after the evolution” value (E. coli K-12 BW25113; parallel-evolved line 8) was 49. For the same molecule, the “MIC fold change after the evolution” value (E. coli K-12 BW25113; parallel-evolved line 9) was 177 and the “MIC fold change after the evolution” value (E. coli K-12 BW25113; parallel-evolved line 10) was 93.
